The target of the experiment is T1, recombinant GRP78 protein (Homo sapiens, UniProt P11021).
T1 construct: gene HSPA5; recombinant GRP78
The experiment is described as follows: isothermal titration calorimetry; also SPR small molecule microarray. It is filed as binding. The source says:
isothermal titration calorimetry; also SPR small molecule microarray on recombinant GRP78 protein | measure the binding affinity of cefoselis with the recombinant GRP78 protein
On the technique in general: In ITC the heat of successive injections is recorded.

The source of these data is article PMC9939292, “Cefoselis enhances breast cancer chemosensitivity by directly targeting GRP78/LRP5 signalling of cancer stem cells” (Clinical and Translational Medicine, 2023).

T1 sequence (P11021 19-654): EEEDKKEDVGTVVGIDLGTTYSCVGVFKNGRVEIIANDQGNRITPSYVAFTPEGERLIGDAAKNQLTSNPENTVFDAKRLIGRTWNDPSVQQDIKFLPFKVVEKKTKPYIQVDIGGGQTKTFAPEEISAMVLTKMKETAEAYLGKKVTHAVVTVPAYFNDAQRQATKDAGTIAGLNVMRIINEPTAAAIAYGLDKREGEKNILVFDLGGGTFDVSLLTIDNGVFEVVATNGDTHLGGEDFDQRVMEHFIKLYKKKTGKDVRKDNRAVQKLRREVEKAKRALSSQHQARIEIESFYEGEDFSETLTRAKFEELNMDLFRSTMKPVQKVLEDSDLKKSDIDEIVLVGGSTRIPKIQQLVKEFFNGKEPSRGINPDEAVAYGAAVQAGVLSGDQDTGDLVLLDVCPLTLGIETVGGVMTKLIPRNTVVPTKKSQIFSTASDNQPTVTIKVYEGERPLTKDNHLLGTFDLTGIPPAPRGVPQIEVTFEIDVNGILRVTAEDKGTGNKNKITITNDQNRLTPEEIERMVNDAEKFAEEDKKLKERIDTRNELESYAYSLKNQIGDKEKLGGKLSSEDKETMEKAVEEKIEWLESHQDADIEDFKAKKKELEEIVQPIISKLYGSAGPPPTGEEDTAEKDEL

As for `CO/N=C(\C(=O)N[C@@H]1C(=O)N2C(C(=O)[O-])=C(C[n+]3ccc(N)n3CCO)CS[C@H]12)c1csc(N)n1` [cefoselis], the dissociation constant Kd (usually the free concentration of one partner at which half of the binding sites on the other are occupied at equilibrium, for simple one-to-one binding) was 463 nM.
